According to patent publication US20070117770A1, “Human ribosomal DNA (rDNA) and ribosomal RNA (rRNA) nucleic acids and uses thereof” (Cylene Pharmaceuticals, Inc., priority 2005, published 2007):

Experiments:
CHK2(h) = CHK2(h) (Homo sapiens, UniProt O96017); assay: Protein kinase inhibition assay; format: biochemical; settings: read-out: percent residual activity of CHK2(h)
Method: (§1) Certain compounds were tested for activity in protein kinase inhibition assays. All substrates were dissolved and diluted to working stocks in de-ionized water, apart from histone H1 (10× working stock in 20 mM MOPS pH 7.0), PDKtide (10× working stock in 50 mM Tris pH 7.0) ATF2 (which is typically stored at a 20× working stock in 50 mM Tris pH 7.5, 150 mM NaCl, 0.1 mM EGTA, 0.03% Brij-35, 50% glycerol, 1 mM benzamidine, 0.2 mM PMSF and 0.1% R-mercaptoethanol), KKLNRTLSFAEPG (SEQ ID NO:203) and RRRLSFAEPG (SEQ ID NO:204) (50 mM HEPES pH 7.4) and GGEEEEYFELVKKKK (SEQ ID NO:205) (20 mM MOPS pH 7.0). All kinases were pre-diluted to a 10× working concentration prior to addition into the assay. The composition of the dilution buffer for each kinase is detailed below.
In a final reaction volume of 25 μl, CHK2 (h) (5-10 mU) is incubated with 8 mM MOPS pH 7.0, 0.2 mM EDTA, 200 μM […] (SEQ ID NO:213), 10 mM MgAcetate and [gamma-33P-ATP] (specific activity approx. 500 cpm/pmol, concentration as required). The reaction is initiated by the addition of the MgATP mix. After incubation for 40 minutes at room temperature, the reaction is stopped by the addition of 5 μl of a 3% phosphoric acid solution. 10 μl of the reaction is then spotted onto a P30 filtermat and washed three times for 5 minutes in 75 mM phosphoric acid and once in methanol prior to drying and scintillation counting.

CDK2/cyclinE(h) = CDK2/cyclinE(h) (Homo sapiens, UniProt P24941); assay: Protein kinase inhibition assay; format: biochemical; settings: read-out: percent residual activity of CDK2/cyclinE(h)
Method: as §1
(§2) In a final reaction volume of 25 μl, CDK2/cyclinE (h) (5-10 mU) is incubated with 8 mM MOPS pH 7.0, 0.2 mM EDTA, 0.1 mg/ml histone H1, 10 mM MgAcetate and [gamma-33P-ATP] (specific activity approx. 500 cpm/pmol, concentration as required). The reaction is initiated by the addition of the MgATP mix. After incubation for 40 minutes at room temperature, the reaction is stopped by the addition of 5 μl of a 3% phosphoric acid solution. 10 μl of the reaction is then spotted onto a P30 filtermat and washed three times for 5 minutes in 75 mM phosphoric acid and once in methanol prior to drying and scintillation counting.

SGK2(h) = SGK2(h) (Homo sapiens, UniProt Q9HBY8); assay: Protein kinase inhibition assay; format: biochemical; settings: read-out: percent residual activity of SGK2(h)
Sequence of SGK2(h) (Q9HBY8 whole entry): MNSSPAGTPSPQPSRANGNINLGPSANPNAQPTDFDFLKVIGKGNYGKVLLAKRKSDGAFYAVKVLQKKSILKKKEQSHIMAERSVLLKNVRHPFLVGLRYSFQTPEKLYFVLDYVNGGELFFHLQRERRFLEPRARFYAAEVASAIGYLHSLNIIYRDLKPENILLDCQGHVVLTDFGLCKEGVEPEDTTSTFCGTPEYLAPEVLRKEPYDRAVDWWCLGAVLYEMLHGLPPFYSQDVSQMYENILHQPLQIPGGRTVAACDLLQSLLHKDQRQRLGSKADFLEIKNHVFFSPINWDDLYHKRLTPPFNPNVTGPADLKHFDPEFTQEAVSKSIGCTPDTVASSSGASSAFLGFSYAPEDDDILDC
Method: as §1
In a final reaction volume of 25 μl, SGK2 (h) (5-10 mU) is incubated with 8 mM MOPS pH 7.0, 0.2 mM EDTA, 30 μM GRPRTSSFAEGKK (SEQ ID NO:226), 10 mM MgAcetate and [gamma-33P-ATP] (specific activity approx. 500 cpm/pmol, concentration as required). The reaction is initiated by the addition of the MgATP mix. After incubation for 40 minutes at room temperature, the reaction is stopped by the addition of 5 μl of a 3% phosphoric acid solution. 10 μl of the reaction is then spotted onto a P30 filtermat and washed three times for 5 minutes in 75 mM phosphoric acid and once in methanol prior to drying and scintillation counting.

TAK1(h) = TAK1(h) (Homo sapiens, UniProt O43318); assay: Protein kinase inhibition assay; format: biochemical; settings: read-out: percent residual activity of TAK1(h)
Sequence of TAK1(h) (O43318 1-303 limits assumed): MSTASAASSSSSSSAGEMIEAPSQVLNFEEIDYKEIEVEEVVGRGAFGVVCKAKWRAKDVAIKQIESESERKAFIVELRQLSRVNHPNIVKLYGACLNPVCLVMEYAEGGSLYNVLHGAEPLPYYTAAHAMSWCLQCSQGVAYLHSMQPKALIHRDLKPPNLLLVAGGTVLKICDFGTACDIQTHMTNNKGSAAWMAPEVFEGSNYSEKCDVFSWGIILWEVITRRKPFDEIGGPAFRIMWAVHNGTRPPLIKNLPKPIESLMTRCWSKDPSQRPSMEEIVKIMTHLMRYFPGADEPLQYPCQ
Method: as §1
as §2, with “TAK1” for “CDK2/cyclinE”, “2” for “0.1”, “casein,” for “histone H1,”

HCT116 cells = assay: Protein synthesis (3H-methionine incorporation); format: cell-based; settings: at the tested concentrations
Method: Effects of compound A-1 and compound B-1 on DNA synthesis, RNA synthesis and protein synthesis were determined in HCT116 cells. HCT116 cells were plated overnight at 100,000 cells per mL. Next day cells were treated with increasing amounts of either compound A-1 or compound B-1 followed by one hour incubation with BrdU label (from a BrdU Cell proliferation Assay Kit, Calbiochem) to monitor DNA synthesis; […] of ^3H-uridine to monitor total RNA synthesis; […] of ^3H-methionine to monitor protein synthesis or plain media to monitor RNA Polymerase II-dependent RNA synthesis. DNA synthesis was assessed using a BrdU-ELISA (BrdU Cell proliferation Assay Kit, Calbiochem). To measure total RNA synthesis, total RNA from treated cells was isolated with a RNease kit (QIAGEN), levels of total RNA were assessed with Ribogreen reagent (Invitrogen) and the newly synthesized tritiated RNA was measured in a scintillation Counter (Perkin Elmer). To measure effects on protein synthesis, cells were lysed in a RIPA buffer, and total protein was precipitated with 10% TCA on a glass-filters. Newly synthesized tritiated protein was measured in a scintillation Counter (Perkin Elmer). Effects of drugs on […] RNA synthesis were assessed by monitoring levels of a c-myc mRNA, which has a relatively short half-life of approximately 30 minutes, by Taqman qRT-PCR (ABI).

PKG1β(h) = PKG1β(h) (Homo sapiens, UniProt Q13976); assay: Protein kinase inhibition assay; format: biochemical; settings: read-out: percent residual activity of PKG1β(h)
Sequence of PKG1β(h) (Q13976 1-686 isoform Q13976-2): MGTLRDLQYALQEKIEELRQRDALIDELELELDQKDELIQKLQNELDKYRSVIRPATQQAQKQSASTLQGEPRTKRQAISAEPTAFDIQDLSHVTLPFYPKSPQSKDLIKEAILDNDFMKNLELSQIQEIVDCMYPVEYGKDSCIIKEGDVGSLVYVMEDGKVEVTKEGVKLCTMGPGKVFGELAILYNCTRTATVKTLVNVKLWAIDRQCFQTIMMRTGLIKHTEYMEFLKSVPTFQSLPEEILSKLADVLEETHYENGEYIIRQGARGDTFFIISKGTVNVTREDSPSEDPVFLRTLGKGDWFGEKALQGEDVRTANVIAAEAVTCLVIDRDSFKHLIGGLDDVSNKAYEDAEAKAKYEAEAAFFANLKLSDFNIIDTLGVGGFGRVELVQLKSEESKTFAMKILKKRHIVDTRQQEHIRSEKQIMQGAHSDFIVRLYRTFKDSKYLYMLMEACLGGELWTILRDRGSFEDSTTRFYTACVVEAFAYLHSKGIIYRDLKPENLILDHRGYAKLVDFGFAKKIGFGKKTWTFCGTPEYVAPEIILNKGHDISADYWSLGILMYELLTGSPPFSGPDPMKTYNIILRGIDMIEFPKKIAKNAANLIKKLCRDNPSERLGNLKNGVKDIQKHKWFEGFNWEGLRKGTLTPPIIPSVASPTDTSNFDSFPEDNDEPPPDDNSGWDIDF
Method: as §1
In a final reaction volume of 25 μl, PKG1β (h) (5-10 mU) is incubated with 8 mM MOPS pH 7.0, 0.2 mM EDTA, 10 μM cGMP, 200 μM RRRLSFAEPG (SEQ ID NO:223), 10 mM MgAcetate and [gamma-33P-ATP] (specific activity approx. 500 cpm/pmol, concentration as required). The reaction is initiated by the addition of the MgATP mix. After incubation for 40 minutes at room temperature, the reaction is stopped by the addition of 5 μl of a 3% phosphoric acid solution. […]

Sequence of CHK2(h) (O96017 whole entry): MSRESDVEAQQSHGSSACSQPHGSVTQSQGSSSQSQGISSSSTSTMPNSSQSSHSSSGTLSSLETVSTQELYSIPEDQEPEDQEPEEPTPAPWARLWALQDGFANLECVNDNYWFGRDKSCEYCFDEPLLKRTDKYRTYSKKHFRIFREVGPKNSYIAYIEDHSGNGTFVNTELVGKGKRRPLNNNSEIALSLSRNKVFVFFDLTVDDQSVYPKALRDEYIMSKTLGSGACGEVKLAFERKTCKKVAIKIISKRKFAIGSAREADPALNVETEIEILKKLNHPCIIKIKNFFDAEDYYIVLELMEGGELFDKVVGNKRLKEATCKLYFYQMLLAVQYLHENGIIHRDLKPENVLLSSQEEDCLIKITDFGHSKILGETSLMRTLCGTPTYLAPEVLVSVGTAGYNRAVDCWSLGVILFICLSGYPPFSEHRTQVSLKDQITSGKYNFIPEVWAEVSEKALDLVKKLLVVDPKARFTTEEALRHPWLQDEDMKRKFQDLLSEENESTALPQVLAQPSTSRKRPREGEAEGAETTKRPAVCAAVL

SMILES | remaining activity at 2.5 µM (CHK2(h)) [%] | remaining activity at 2.5 µM (CDK2/cyclinE(h)) [%] | remaining activity at 2.5 µM (SGK2(h)) [%] | remaining activity at 2.5 µM (TAK1(h)) [%] | effect on protein synthesis (HCT116 cells) | remaining activity at 2.5 µM (PKG1β(h)) [%]
CN1CCCC1CCNC(=O)c1cn2c3c(c(N4CCC(c5cnccn5)C4)c(F)cc3c1=O)Oc1cc3ccccc3cc1-2 (stereo not drawn) [Compound A-1] | 62 | 102 | 38 | 98 | no measureable effect | 48
CC(=O)N1CCN(c2ccc3c(=O)c(C(=O)NCCN4CCCC4)c4n(C)c5ccccc5n4c3n2)CC1 [Compound B-1] | 99 | 117 | 104 | 95 | no measureable effect | 107
